Test results published in the supplement of paper PMC10307832.

Assays:
Assay in all cases: relative viability (nuclei count vs DMSO), 5 days (fraction); higher = more cells survive
A-427 = test system: A-427
In short: (§1)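 Nuclei were stained with Hoechst during a one-step fixation (final 0.05% Triton X-100, 1% formaldehyde, 1 ug/ml Hoechst) carried out 5 days after dosing, then counted on 4× images. The cells, lung cancer lines in 1536-well plates, had been dosed by pin tool the day after seeding with one drug alone or a fixed anchor-drug dose plus five library-drug doses (not always all listed) in √10 steps. Relative viability is the nuclei count in treated wells divided by that in vehicle wells, and each value is the median of duplicate plates.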

CAL-12T = test system: CAL-12T
In short: as §1

COR-L 105 = test system: COR-L 105
In short: as §1

EMC-BAC-2 = test system: EMC-BAC-2
In short: as §1

HARA = test system: HARA
In short: as §1

HCC-366 = test system: HCC-366
In short: as §1

HCC-827 = test system: HCC-827
In short: as §1

HOP-62 = test system: HOP-62
In short: as §1

LCLC-103H = test system: LCLC-103H
In short: as §1

NCI-H1355 = test system: NCI-H1355
In short: as §1

NCI-H1395 = test system: NCI-H1395
In short: as §1

NCI-H1437 = test system: NCI-H1437
In short: as §1

NCI-H1755 = test system: NCI-H1755
In short: as §1

NCI-H1792 = test system: NCI-H1792
In short: as §1

NCI-H1915 = test system: NCI-H1915
In short: as §1

NCI-H1975 = test system: NCI-H1975
In short: as §1

NCI-H2009 = test system: NCI-H2009
In short: as §1

NCI-H2228 = test system: NCI-H2228
In short: as §1

NCI-H23 = test system: NCI-H23
In short: as §1

NCI-H460 = test system: NCI-H460
In short: as §1

NCI-H727 = test system: NCI-H727
In short: as §1

SK-LU-1 = test system: SK-LU-1
In short: as §1

SW 1573 = test system: SW 1573
In short: as §1

CC1(C)CCC(c2ccc(Cl)cc2)=C(CN2CCN(c3ccc(C(=O)NS(=O)(=O)c4ccc(N[C@H](CCN5CCOCC5)CSc5ccccc5)c(S(=O)(=O)C(F)(F)F)c4)cc3)CC2)C1 [Navitoclax] + Cc1nc(Nc2ncc(C(=O)Nc3c(C)cccc3Cl)s2)cc(N2CCN(CCO)CC2)n1 [Dasatinib] (partner 0.075 µM)
relative viability (A-427; first compound 0.005 µM): 0.784
relative viability (A-427; first compound 0.01581 µM): 0.694
relative viability (A-427; first compound 0.05 µM): 0.71
relative viability (A-427; first compound 0.1581 µM): 0.734
relative viability (A-427; first compound 0.5 µM): 0.643
relative viability (CAL-12T; first compound 0.005 µM): 0.433
relative viability (CAL-12T; first compound 0.01581 µM): 0.6
relative viability (CAL-12T; first compound 0.05 µM): 0.325
relative viability (CAL-12T; first compound 0.1581 µM): 0.492
relative viability (CAL-12T; first compound 0.5 µM): 0.506
relative viability (COR-L 105; first compound 0.005 µM): 0.331
relative viability (COR-L 105; first compound 0.01581 µM): 0.458
relative viability (COR-L 105; first compound 0.05 µM): 0.331
relative viability (COR-L 105; first compound 0.1581 µM): 0.342
relative viability (COR-L 105; first compound 0.5 µM): 0.306
relative viability (EMC-BAC-2; first compound 0.005 µM): 0.29
relative viability (EMC-BAC-2; first compound 0.01581 µM): 0.354
relative viability (EMC-BAC-2; first compound 0.05 µM): 0.312
relative viability (EMC-BAC-2; first compound 0.1581 µM): 0.267
relative viability (EMC-BAC-2; first compound 0.5 µM): 0.288
relative viability (HARA; first compound 0.005 µM): 0.308
relative viability (HARA; first compound 0.01581 µM): 0.277
relative viability (HARA; first compound 0.1581 µM): 0.29
relative viability (HARA; first compound 0.5 µM): 0.242
relative viability (HCC-366; first compound 0.005 µM): 0.587
relative viability (HCC-366; first compound 0.01581 µM): 0.689
relative viability (HCC-366; first compound 0.1581 µM): 0.709
relative viability (HCC-366; first compound 0.5 µM): 0.646
relative viability (HCC-827; first compound 0.005 µM): 0.388
relative viability (HCC-827; first compound 0.01581 µM): 0.387
relative viability (HCC-827; first compound 0.05 µM): 0.297
relative viability (HCC-827; first compound 0.1581 µM): 0.271
relative viability (HCC-827; first compound 0.5 µM): 0.359
relative viability (HOP-62; first compound 0.005 µM): 0.593
relative viability (HOP-62; first compound 0.01581 µM): 0.752
relative viability (HOP-62; first compound 0.05 µM): 0.623
relative viability (HOP-62; first compound 0.1581 µM): 0.719
relative viability (HOP-62; first compound 0.5 µM): 0.678
relative viability (LCLC-103H; first compound 0.005 µM): 0.468
relative viability (LCLC-103H; first compound 0.01581 µM): 0.496
relative viability (LCLC-103H; first compound 0.05 µM): 0.31
relative viability (LCLC-103H; first compound 0.1581 µM): 0.539
relative viability (LCLC-103H; first compound 0.5 µM): 0.474
relative viability (NCI-H1355; first compound 0.005 µM): 0.765
relative viability (NCI-H1355; first compound 0.01581 µM): 0.796
relative viability (NCI-H1355; first compound 0.05 µM): 0.753
relative viability (NCI-H1355; first compound 0.1581 µM): 0.699
relative viability (NCI-H1355; first compound 0.5 µM): 0.729
relative viability (NCI-H1395; first compound 0.005 µM): 0.404
relative viability (NCI-H1395; first compound 0.01581 µM): 0.42
relative viability (NCI-H1395; first compound 0.05 µM): 0.378
relative viability (NCI-H1395; first compound 0.1581 µM): 0.387
relative viability (NCI-H1395; first compound 0.5 µM): 0.483
relative viability (NCI-H1437; first compound 0.005 µM): 0.377
relative viability (NCI-H1437; first compound 0.01581 µM): 0.513
relative viability (NCI-H1437; first compound 0.05 µM): 0.287
relative viability (NCI-H1437; first compound 0.1581 µM): 0.394
relative viability (NCI-H1437; first compound 0.5 µM): 0.41
relative viability (NCI-H1755; first compound 0.005 µM): 0.396
relative viability (NCI-H1755; first compound 0.01581 µM): 0.416
relative viability (NCI-H1755; first compound 0.05 µM): 0.262
relative viability (NCI-H1755; first compound 0.1581 µM): 0.339
relative viability (NCI-H1755; first compound 0.5 µM): 0.281
relative viability (NCI-H1792; first compound 0.005 µM): 0.717
relative viability (NCI-H1792; first compound 0.01581 µM): 0.914
relative viability (NCI-H1792; first compound 0.05 µM): 0.64
relative viability (NCI-H1792; first compound 0.1581 µM): 0.782
relative viability (NCI-H1792; first compound 0.5 µM): 0.79
relative viability (NCI-H1915; first compound 0.005 µM): 0.323
relative viability (NCI-H1915; first compound 0.01581 µM): 0.333
relative viability (NCI-H1915; first compound 0.05 µM): 0.335
relative viability (NCI-H1915; first compound 0.1581 µM): 0.309
relative viability (NCI-H1915; first compound 0.5 µM): 0.354
relative viability (NCI-H1975; first compound 0.005 µM): 0.346
relative viability (NCI-H1975; first compound 0.01581 µM): 0.36
relative viability (NCI-H1975; first compound 0.05 µM): 0.415
relative viability (NCI-H1975; first compound 0.1581 µM): 0.337
relative viability (NCI-H1975; first compound 0.5 µM): 0.323
relative viability (NCI-H2009; first compound 0.005 µM): 0.232
relative viability (NCI-H2009; first compound 0.01581 µM): 0.383
relative viability (NCI-H2009; first compound 0.05 µM): 0.264
relative viability (NCI-H2009; first compound 0.1581 µM): 0.336
relative viability (NCI-H2009; first compound 0.5 µM): 0.319
relative viability (NCI-H2228; first compound 0.005 µM): 0.519
relative viability (NCI-H2228; first compound 0.01581 µM): 0.525
relative viability (NCI-H2228; first compound 0.1581 µM): 0.592
relative viability (NCI-H2228; first compound 0.5 µM): 0.517
relative viability (NCI-H23; first compound 0.005 µM): 0.841
relative viability (NCI-H23; first compound 0.01581 µM): 0.79
relative viability (NCI-H23; first compound 0.05 µM): 0.627
relative viability (NCI-H23; first compound 0.1581 µM): 0.705
relative viability (NCI-H23; first compound 0.5 µM): 0.779
relative viability (NCI-H460; first compound 0.005 µM): 0.522
relative viability (NCI-H460; first compound 0.01581 µM): 0.609
relative viability (NCI-H460; first compound 0.05 µM): 0.651
relative viability (NCI-H460; first compound 0.1581 µM): 0.53
relative viability (NCI-H460; first compound 0.5 µM): 0.483
relative viability (NCI-H727; first compound 0.01581 µM): 0.364
relative viability (NCI-H727; first compound 0.1581 µM): 0.365
relative viability (NCI-H727; first compound 0.5 µM): 0.347
relative viability (SK-LU-1; first compound 0.005 µM): 0.182
relative viability (SK-LU-1; first compound 0.01581 µM): 0.169
relative viability (SK-LU-1; first compound 0.05 µM): 0.193
relative viability (SK-LU-1; first compound 0.1581 µM): 0.203
relative viability (SK-LU-1; first compound 0.5 µM): 0.0932
relative viability (SW 1573; first compound 0.005 µM): 0.522
relative viability (SW 1573; first compound 0.01581 µM): 0.699
relative viability (SW 1573; first compound 0.05 µM): 0.637
relative viability (SW 1573; first compound 0.1581 µM): 0.482
relative viability (SW 1573; first compound 0.5 µM): 0.459
